According to patent US10696678B2, “Kinase inhibitor, and preparing method and pharmaceutical use thereof” (GAN & LEE PHARMACEUTICALS, priority 2015, dated 2020):
Like-named read-outs stand apart in the source and are kept apart here.

Legend:
[1] = system: human breast cancer cell line MDB-MA-231; assay: Proliferation inhibition assay on human breast cancer cell line MDA-MB-231 (DAPI staining, In Cell Analyzer); format: cell-based; details: MDA-MB-231, read-out: IC50 for inhibition of proliferation of human breast cancer cell line MDB-MA-231, 72 h incubation
Procedure: Experimental Preparation:
1. MDA-MB-231 cells were seeded at 4000 cells/100 ul/well to a 96-well plate with black transparent bottom, and cultured overnight at 37° C.;
3. Fixation: the cell plate was taken, medium was removed, and 50 μl of 4% paraformaldehyde was added to each well and fixed 10 min;
4.50 μl 0.1 M glycine was added to neutralize for 10 min;
6. Permeabilization: 50 ul of 0.2% TritonX-100 was added to each well and permeabilized at room temperature for 10 min;
8.5 mg/mL DAPI stock solution was diluted at 1:5000 (final concentration 1 μg/ml) and the cells were stained at room temperature for 20 min.
10. The plate was scanned and analyzed on In cell analyser.

[2] = target: CDK4/D3 (Homo sapiens (Human), UniProt P11802); assay: CDKs inhibition assay (ADP-Glo Kinase Assay), CDK4; details: for selectivity for CDK4/6 (over CDK1) compared with the control compound LY2835219: in words; for Ratio IC50 (CDK4)/IC50 (CDK1): smaller value = better selectivity for CDK4
Procedure: (2) Preparation of Test Compound:
(§4) a. Test compounds at a certain concentration were taken respectively, and diluted with kinase reaction buffer I to compound solutions with a final concentration of 50 μM;
(§5) 4. Preparation of reaction substrate and ATP mixed solution:
a. Preparation of ATP solution:
(§6) 200 μl of 0.1 mM ATP solution: 2 μl of 10 mM ATP was added into 198 μl kinase reaction buffer I;
(§7) 300 μl of 50 μl M ATP solution: 150 μl kinase reaction buffer I was added into 150 μl of above-mentioned 0.1 mM ATP solution;
(§8) b. Preparation of 300 μl reaction substrate solution:
(§9) 150 μl of 1 μg/μl reaction substrate stock solution was added into 150 μl kinase reaction buffer I and uniformly mixed;
(§10) c. Above-mentioned a/b solutions were mixed to obtain mixed solutions respectively.
(§11) 2 μl compound solution at each concentration was added into a 384-well plate respectively, and centrifuged for 3 min;
(§12) 4 μl kinase solution was added into each well, centrifuged at 5000 rpm for 10 min at 18° C., and shaked well for 10 min on a shaker;
(§13) 4 μl substrate and ATP mixed solution were added into each well, centrifuged at 5000 rpm for 10 min at 18° C., and shaked well for 90 min on a shaker at 37° C.;
(§14) The 384 well plate was removed and allow to achieve room temperature;
(§15) 10 μl ADP-Glo reagent was added into each well, centrifuged at 5000 rpm for 10 min at 18° C., and shaked well for 40 min on a shaker at 25° C. to terminate the reaction;
(§16) 20 μl kinase assay reagent was added into each well, centrifuged at 5000 rpm for 10 min at 18° C., and shaked well for 30 min on a shaker at 25° C.;
(§17) Fluorescence values were read by M1000pro microplate reader.
(§18) The inhibition rate of each compound at each concentration point was calculated according to the following equation, and IC50 value was calculated by curve fitting using GraphPad Prism 5 software.

[3] = target: CDK6/D3 (Homo sapiens (Human), UniProt Q00534); assay: CDKs inhibition assay (ADP-Glo Kinase Assay), CDK6; details: for Ratio IC50 (CDK6)/IC50 (CDK1): smaller value = better selectivity for CDK6
Procedure: (2) Preparation of Test Compound:
as §4, §5
a. Preparation of ATP solution:
as §6, §7, §8, §9, §10, §11, §12, §13, §14, §15, §16, §17, §18

[4] = target: CDK1/A2 (Homo sapiens (Human), UniProt P06493); assay: CDKs inhibition assay (ADP-Glo Kinase Assay), CDK1; details: read-out: IC50 (nM) CDK1/A2
Procedure: (2) Preparation of Test Compound:
as §4, §5
a. Preparation of ATP solution:
as §6, §7, §8, §9, §10, §11, §12, §13, §14, §15, §16, §17, §18

[5] = Pharmacokinetic study in rats (intragastric); format: in vivo, SD rats; details: 5 mg/kg
Procedure: (§1) 2.3 Preparation of Test Compounds
(§2) 2.4 Test Drug Administration
(§3) 3. Experimental Operation
Whole blood was anticoagulated with EDTA-K2, centrifuged to remove the supernatant, and cryopreserved at −20° C. until being analyzed.

[6] = Pharmacokinetic study in mice (intragastric and intravenous); format: in vivo, ICR mice; details: for AUC: read-out: Area under the curve AUC; for MRT: read-out: Retention time MRT
Procedure: as §1
An appropriate amount of sample was weighed, then 0.1% hydroxyethyl cellulose/0.5% Tween 80 was added to final volume to obtain a solution of 0.5 mg/ml for intragastrical administration.
as §2
Male ICR mice, 3 for each test compound, were intragastrically administered test drugs at a dose of 5 mg/kg and a drug volume of 10 ml/kg after an overnight fast.
Male ICR mice, 3 for each test compound, were administered by intravenous injection test drugs at a dose of 2 mg/kg and a drug volume of 10 ml/kg after an overnight fast.
as §3
The carotid artery of the animal was catheterized and blood sample was removed prior to dosing and at 0.25, 0.5, 1, 2, 4, 8, 12 and 24 hours after dosing for intragastrical administration group. Whole blood was anticoagulated with EDTA-K2, centrifuged to remove the supernatant, and cryopreserved at −20° C. until being analyzed. The carotid artery of the animal was catheterized and blood sample was removed prior to dosing and at 0.083, 0.25, 0.5, 1, 2, 4, 8, 12 and 24 hours after dosing for i.v. administration group. Plasma sample treatment was the same as intragastrical administration group.

[7] = male, ICR, mouse, plasma, iv, i.v. (2 mg/kg)
[8] = male, ICR, mouse, plasma, po, i.g. (5 mg/kg)

Row | SMILES | IC50 [1] [nM] | IC50 [2] [nM] | selectivity for CDK4/6 (over CDK1) compared with the control compound LY2835219 [2] | Ratio IC50 (CDK4)/IC50 (CDK1) [2] | IC50 [3] [nM] | Ratio IC50 (CDK6)/IC50 (CDK1) [3] | IC50 [4] [nM] | Area under the curve AUC [5] [ng·h/mL] | Apparent volume of distribution Vz/F ([6]; i.v. (2 mg/kg)) [L/kg] | AUC [6, 7] [ng·h/mL] | MRT [6, 7] [h] | bioavailability ([6]; male, ICR, mouse, plasma, oral, i.g. (5 mg/kg) vs i.v. (2 mg/kg), read-out: Bioavailability F) [%] | Vd/F ([6]; male, ICR, mouse, plasma, po, i.g. (5 mg/kg), read-out: Apparent volume of distribution Vz/F) [L/kg] | AUC [6, 8] [ng·h/mL] | MRT [6, 8] [h]
1 | Cc1nc(Nc2ncc(F)c(-c3cc(F)c4nc5n(c4c3)C(C)(C)CC5)n2)ccc1CC1CCNCC1 [Example 30, 5-Fluoro-4-(5-fluoro-1,1-dimethyl-2,3-dihydro-1H-benzo[d]pyrrolo[1,2-a]imidazol-7-yl)-N-(6-methyl-5-(piperidine-4-ylmethyl)pyridin-2-yl)pyrimidin-2-amine] | 300 | 1.2 | better selectivity for CDK4/6 than the control compound | 0.002 | 12.2 | 0.016 | 744 | – | – | – | – | – | – | – | –
2 | CCN1CCN(Cc2ccc(Nc3ncc(F)c(-c4cc(F)c5nc(C)n(C(C)C)c5c4)n3)nc2)CC1 [LY2835219] | – | – | – | – | – | – | – | 3275 ± 731 | 7.21 ± 1.08 | 674 ± 82.1 | 1.64 ± 0.17 | 45.1 | 16.1 ± 0.963 | 756 ± 34 | 3.08 ± 0.02
3 | CC1CN(c2ccc(Nc3ncc(F)c(-c4cc(F)c5nc6n(c5c4)C(C)(C)CC6)n3)nc2)CC(C)N1 (stereo not shown) [Example 74, N-(5-(3,5-Dimethylpiperazin-1-yl)pyridin-2-yl)-5-fluoro-4-(5-fluoro-1,1-dimethyl-2,3-dihydro-1H-benzo[d]pyrrolo[1,2-a]imidazol-7-yl)pyrimidin-2-amine] | 174 | 0.28 | better selectivity for CDK4/6 than the control compound | 0.003 | 0.6 | 0.006 | 94.8 | – | – | – | – | – | – | – | –
